Where “and” joins values, the source holds several entries; their conditions need not be identical. Identical values can stand only once.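 Dose response: 5 concentrations. Exposure: 48 h. Format: 96-well plates. Endpoint: linear interpolation; highest concentration if not reached. Here, GI50 denotes the concentration required for 50% inhibition of growth.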 Calls of active or inactive are those of the source. Rule as the data show it: active = GI50 up to about 1.1 µM and inactive = higher.
Key:
Test in all cases: inhibition of tumour cell growth, NCI panel, 48 h
[1] = test system: M14
[2] = test system: SK-OV-3
[3] = test system: OVCAR-5
[4] = test system: COLO 205
[5] = test system: HCC 2998
[6] = test system: SF-268
[7] = test system: SN12C
[8] = test system: Malme-3M
[9] = test system: UO-31
[10] = test system: OVCAR-8
[11] = test system: OVCAR-3
[12] = test system: A549
[13] = test system: CAKI-1
[14] = test system: HCT-116

Measured: GI50

COC(=O)CCC1CCc2c(OC)ccc(OC)c2C1=O (configuration not stated)
inactive: [1] > 100 µM | [2] > 100 µM | [3] > 100 µM | [4] > 100 µM | [5] > 100 µM | [6] > 100 µM | [7] > 100 µM | [8] > 100 µM | [9] > 100 µM | [10] > 100 µM | [11] > 100 µM | [12] > 100 µM

CSC1CC2C(CC1(C)O)C2(C)C (configuration not stated)
inactive: [1] > 100 µM | [2] > 100 µM | [3] > 100 µM | [4] > 100 µM | [13] > 100 µM | [5] > 100 µM | [6] > 100 µM | [7] > 100 µM | [8] > 100 µM | [9] > 100 µM and 65 µM | [14] > 100 µM | [10] > 100 µM | [12] > 100 µM

CC1=N/C(=C\c2c(O)ccc3ccccc23)C(=O)O1
inactive: [1] > 100 µM | [3] > 100 µM | [4] > 100 µM | [5] > 100 µM | [6] > 100 µM | [7] > 100 µM | [8] > 100 µM | [9] > 100 µM | [14] > 100 µM | [10] > 100 µM | [12] > 100 µM

[N-]=[N+]=NC1C2CC3CC(C2)CC1C3 (configuration not stated)
inactive: [1] > 100 µM | [2] > 100 µM | [3] > 100 µM | [4] > 100 µM | [13] > 100 µM | [5] > 100 µM | [7] > 100 µM | [8] > 100 µM | [9] > 100 µM | [14] > 100 µM | [10] > 100 µM | [11] > 100 µM | [12] > 100 µM

O=C(Nc1ccc(S(=O)(=O)N[C@@H](C(=O)O)c2ccccc2)cc1)c1ccc(F)cc1
inactive: [1] > 100 µM | [2] > 100 µM | [3] > 100 µM | [4] > 100 µM | [13] > 100 µM | [5] > 100 µM | [6] > 100 µM | [7] > 100 µM | [8] > 100 µM | [9] > 100 µM | [10] > 100 µM | [11] > 100 µM | [12] > 100 µM

COc1ccc(C(=O)C(c2ccc(OC)cc2)C2OC(=O)C(Cl)=C2Cl)cc1 (configuration not stated)
inactive: [1] > 100 µM | [2] > 100 µM | [3] > 100 µM | [13] > 100 µM | [5] > 100 µM | [6] > 100 µM | [7] > 100 µM | [8] > 100 µM | [9] > 100 µM | [14] > 100 µM | [10] 84.1 µM | [11] > 100 µM | [12] > 100 µM

O/N=C/c1cc2c(cc1Br)OCO2
inactive: [1] > 100 µM | [2] > 100 µM | [3] > 100 µM | [4] > 100 µM | [13] > 100 µM | [5] > 100 µM | [7] > 100 µM | [8] > 100 µM | [9] > 100 µM | [14] > 100 µM | [10] > 100 µM | [11] > 100 µM | [12] > 100 µM

OCC(O)C(OC1OC(CO)C(O)C(O)C1O)c1nn(-c2ccc(Cl)cc2)c2nc3cc(Cl)c(Cl)cc3nc12 (configuration not stated)
inactive: [1] > 100 µM | [2] > 100 µM | [3] > 100 µM | [5] > 100 µM | [6] > 100 µM | [7] > 100 µM | [8] > 100 µM | [9] > 100 µM | [14] > 100 µM | [10] > 100 µM | [11] > 100 µM

Cc1ccccc1C(C#N)/C(=N/NC(N)=S)C(=O)Nc1c(C)cccc1C (configuration not stated)
inactive: [1] > 100 µM | [3] > 100 µM | [4] > 100 µM | [5] > 100 µM | [6] > 100 µM | [7] > 100 µM | [8] 83.8 µM | [9] > 100 µM | [14] > 100 µM | [10] > 100 µM | [11] > 100 µM | [12] 75.9 µM

C[C@]12CCC(=O)C=C1CC[C@@H]1C2CC[C@@]2(C)C1CC[C@@H]2OC(=O)C12OC1CCC2=O (some centres not stated)
inactive: [1] 18.5 µM | [2] 41.7 µM | [3] 17.9 µM | [4] 17.9 µM | [5] 20.3 µM | [6] 20 µM | [7] 23.2 µM | [8] 19.1 µM | [9] 16.5 µM | [14] 15.7 µM | [10] 17.9 µM | [11] 18.9 µM | [12] 25 µM

CC(c1ccccc1)N1CC(C)(c2ccccc2)N(O)C(c2ccccc2)C1C (configuration not stated)
inactive: [2] 22.8 µM | [3] 16.9 µM | [4] 11.1 µM | [5] 11.2 µM | [6] 4.15 µM | [8] 18.8 µM | [9] 3.23 µM | [14] 3.38 µM | [10] 9.91 µM | [11] 11.6 µM | [12] 7.01 µM

Clc1ccc(OCCSCCCCCCCCCCSCCOc2ccc(Cl)cc2)cc1
inactive: [2] > 100 µM | [3] > 100 µM | [4] > 100 µM | [13] > 100 µM | [5] > 100 µM | [6] > 100 µM | [7] > 100 µM | [8] > 100 µM | [9] > 100 µM | [10] > 100 µM | [11] > 100 µM | [12] > 100 µM

CN1CCCC2[C@@H]3CCC4=C(O)C(=O)CC[C@]4(C)C3CC[C@@]21C (some centres not stated)
inactive: [1] > 100 µM | [2] > 100 µM | [3] > 100 µM | [4] > 100 µM | [13] > 100 µM | [6] > 100 µM | [7] > 100 µM | [8] > 100 µM | [9] > 100 µM | [14] > 100 µM | [10] > 100 µM | [11] > 100 µM | [12] > 100 µM

COC(=O)C12C3C4C1C1C2C3C41C(=O)OC(C)(C)C (configuration not stated)
inactive: [1] > 100 µM | [2] > 100 µM | [3] > 100 µM | [4] > 64 µM | [13] > 100 µM | [6] > 100 µM | [7] > 100 µM | [8] > 100 µM | [9] > 100 µM | [14] 26.7 µM | [10] > 81.3 µM | [11] > 100 µM | [12] > 64.3 µM

Cc1cc2c(=O)cc(-c3ccc(C(F)(F)F)cc3)oc2c(C(=O)O)c1C
inactive: [1] > 100 µM | [2] > 100 µM | [3] > 100 µM | [4] > 100 µM | [13] > 100 µM | [6] > 100 µM | [7] > 100 µM | [8] > 100 µM | [9] > 100 µM | [14] > 100 µM | [10] > 100 µM | [11] > 100 µM | [12] > 100 µM

c1ccc(C2[C@@H]3CCCc4ccccc4C3=NN2c2ccccc2)cc1 (some centres not stated)
inactive: [3] > 100 µM | [4] > 100 µM | [5] > 100 µM | [6] > 100 µM | [7] > 100 µM | [8] > 100 µM | [9] > 100 µM | [14] 42 µM | [10] > 100 µM | [11] 31.8 µM | [12] > 100 µM
